Read-outs that look alike come from different tables or passages of the source.
Columns and labels:
Type in all cases: cell-based, human
Target C [1] = assay: Splicing RT-qPCR panel, Target C canonical junction (CJ) mRNA; details: Homo sapiens, read-out: Target C IC50 (decrease in CJ mRNA levels)
Method: (§1) Compounds described herein were used to modulate RNA transcript abundance in cells. The expression of a target mRNA was measured by detecting the formation of an exon-exon junction in the canonical transcript (CJ). A compound mediated exon-inclusion event was detected by observing an increase in formation of a new junction with an alternative exon (AJ). Real-time qPCR assays were used to detect these splicing switches and interrogate the potency of various compounds towards different target genes. A high-throughput real time quantitative PCR (RT-qPCR) assay was developed to measure these two isoforms of the mRNA (CJ and AJ) for exemplary genes, such as HTT, SMN2, and MYB, together with a control housekeeping gene, GAPDH or GUSB or PPIA, used for normalization. Briefly, the A673 or K562 cell line was treated with various compounds described herein (e.g., compounds of Formula (I)). After treatment, the levels of the HTT, MYB, or SMN2 mRNA targets were determined from each sample of cell lysate by cDNA synthesis followed by qPCR.
(§2) The A673 cell line was cultured in DMEM with 10% FBS. Cells were diluted with full growth media and plated in a 96-well plate (15,000 cells in 100 ul media per well). The plate was incubated at 37° C. with 5% CO2 for 24 hours to allow cells to adhere. An 11-point 3-fold serial dilution of the compounds was made in DMSO then diluted in media in an intermediate plate. Compounds were transferred from the intermediate plate to the cell plate with the top dose at a final concentration of 10 uM in the well. Final DMSO concentration was kept at or below 0.25%. The cell plate was returned to the incubator at 37° C. with 5% CO2 for an additional 24 hours.
(§3) The K562 cell line was cultured in IMDM with 10% FBS. For K562, cells were diluted with full growth media and plated in either a 96-well plate (50,000 cells in 50 uL media per well) or a 384-well plate (8,000-40,000 cells in 45 uL media per well). An 11-point 3-fold serial dilution of the compounds were made in DMSO then diluted in media in an intermediate plate. Compound was transferred from the intermediate plate to the cell plate with the top dose at a final concentration of 10 uM in the well. Final DMSO concentration was kept at or below 0.25%. Final volume was 100 uL for 96-well plate and 50 uL for 384-well plate. The cell plate was then placed in an incubator at 37° C. with 5% CO2 for 24 hours.
(§4) The cells were then gently washed with 50 uL-100 uL cold PBS before proceeding to addition of lysis buffer. 30 uL-50 μL of room temperature lysis buffer with DNAse I (and optionally RNAsin) was added to each well. Cells were shaken/mixed thoroughly at room temperature for 5-10 minutes for lysis to take place and then 3 uL-5 μL of room temperature stop solution was added and wells were shaken/mixed again. After 2-5 minutes, the cell lysate plate was transferred to ice for RT-qPCR reaction setup. The lysates could also be frozen at −80° C. for later use.
(§5) In some cases, a direct lysis buffer was used. An appropriate volume of 3× lysis buffer (10 mM Tris, 150 mM NaCl, 1.5%-2.5% Igepal and 0.1-1 U/uL RNAsin, pH 7.4) was directly added to either K562 or A673 cells in media and mixed by pipetting 3 times. The plates were then incubated at room temperature with shaking/rocking for 20-50 minutes to allow for lysis to take place. After this time, the cell lysate plate was transferred to ice to set up for the RT-qPCR reactions. The lysates could also be frozen at −80° C. for later use.
(§6) To set up 10 uL RT-qPCR reactions, cell lysates were transferred to 384-well qPCR plates containing the master mix according to the table below. The plates were sealed, gently vortexed, and spun down before the run. The volumes were adjusted accordingly in some instances where the reaction was carried in 20 μL. The table below summarizes the components of the RT-qPCR reactions:
(§7) The RT-qPCR reaction was performed using a QuantStudio (ThermoFisher) under the following fast cycling conditions. […]

HTT [2] = assay: Splicing RT-qPCR assay, HTT mRNA canonical junction (CJ) and alternative junction (AJ); details: Homo sapiens; for AC50: increase in AJ mRNA
Method: as §1, §2, §3, §4, §5, §6, §7

MYB [3] = assay: Splicing RT-qPCR assay, MYB mRNA canonical junction (CJ) and alternative junction (AJ); details: Homo sapiens; for AC50: increase in AJ mRNA
Method: as §1, §2, §3, §4, §5, §6, §7

SMN2 = assay: Splicing RT-qPCR panel, SMN2 canonical junction (CJ) mRNA; details: Homo sapiens, read-out: SMN2 IC50 (decrease in CJ mRNA levels)
Method: as §1, §2, §3, §4, §5, §6, §7

Target C [4] = assay: HiBiT protein abundance assay, Target C; details: Homo sapiens, K562, 24 h, modified K562 cells
Method: • Promega Nano-Glo HiBiT Lytic Detection System (cat #N3030) • Coming 384-well TC-treated microplates (cat #3570) • Synthego Engineered Cells Knock-In Clones
(§8) Cells were maintained in IMIDM with 10% FBS. Before the assay, cells were diluted with […] growth media (IMIDM+[…] media) and were seeded in a 384-well plate at a density of 10000 cells/well (for each cell line listed in Table 12). Each compound was prepared as a 10-point 3-fold serial dilution in DMSO with the top dose at a final concentration of 10 μM in the well. Unmodified K562 cells were added at the previously specified density with DMSO to serve as an assay baseline and positive control (PC) and DMSO only with the respective modified cell lines was added to the negative control (NC) columns. Final DMSO concentration was kept at or below 0.25%. Treated cell plates were placed in an incubator at 37° C. with 5% CO2 for 24 hours. After 24 hours, 25 μL of Complete HiBit Lytic reagent was added to each well at room temperature (e.g. one plate requiring 10 mL Lytic Buffer, 100 μL LgBiT Protein, 200 μL Lytic Substrate), shaken for 5 minutes at 600 RPM, then left to sit for 10 minutes for signal to stabilize before reading on a Spark Cyto plate reader (Tecan) with a 500 ms measurement time.
(§9) To determine compound effects on protein abundance of each target in Table 12, the percent response for each respective cell line was calculated at each compound concentration as follows:
(§10) For the normalized response at each concentration, a four-parameter logistical regression was fit to the data and the response was interpolated at the 50% value to determine a concentration for protein abundance at 50% (IC50) the untreated control.

HTT [5] = assay: HiBiT protein abundance assay, HTT; details: Homo sapiens, K562, 24 h, modified K562 cells
Method: (§11) Compounds described herein were used to screen for effects on quantitative protein abundance using a HiBit assay system (Promega). Quantitative protein abundance was determined by measuring the protein levels of HiBit-tagged protein targets expressed in cell culture via luminescence using the Nano-Glo HiBiT Lytic Detection System, which uses a split complementation assay format to reconstitute NanoBiT enzyme to generate a luminescent signal. A protein abundance assay was developed such that endogenous protein targets could be modified with the HiBiT peptide tag and their abundance could be assessed after compound treatment. Briefly, K562 cell lines containing a HiBiT-modification were treated with various compounds described herein (e.g., compounds of Formulas (I), (II), or (III)). After treatment for 24 hours, the protein abundance of a specific target was determined by measuring luminescence.
as §8, §9, §10

MYB [6] = assay: HiBiT protein abundance assay, MYB; details: Homo sapiens, K562, 24 h, modified K562 cells
Method: as §11, §8, §9, §10

[7] = RT-qPCR panel, canonical junction mRNA, compound concentration having 50% response in CJ decrease
[8] = RT-qPCR panel, canonical junction mRNA, compound concentration having 50% response in CJ decrease, read-out: HTT IC50 (decrease in CJ mRNA levels)
[9] = A673 or K562 cells, 24 hours treatment, RT-qPCR
[10] = RT-qPCR panel, canonical junction mRNA, compound concentration having 50% response in CJ decrease, read-out: MYB IC50 (decrease in CJ mRNA levels)
[11] = 24 h, decrease in CJ mRNA, A673 or K562 cells, 24 hours treatment, RT-qPCR, read-out: HTT CJ IC50
[12] = 24 h, A673 or K562 cells, 24 hours treatment, RT-qPCR
[13] = 24 h, decrease in CJ mRNA, A673 or K562 cells, 24 hours treatment, RT-qPCR, read-out: MYB CJ IC50
[14] = gene panel, CJ qPCR, protocol of Example 142, read-out: HTT IC50 (decrease in CJ mRNA levels)
[15] = gene panel, CJ qPCR, protocol of Example 142, read-out: MYB IC50 (decrease in CJ mRNA levels)
[16] = gene panel, CJ qPCR, protocol of Example 142

| SMILES | IC50 (Target C [1]; [7]) [nM] | IC50 (HTT [2]; [8]) [nM] | IC50 (MYB [3]; [10]) [nM] | IC50 (SMN2; [7]) [nM] | AC50 (HTT [2]; [12]) [nM] | IC50 (MYB [3]; [13]) [nM] | AC50 (MYB [3]; [12]) [nM] | other results |
| --- | --- | --- | --- | --- | --- | --- | --- | --- |
| CN(c1cnc(-c2cc(F)c(-c3cn[nH]c3)c3cn[nH]c23)nn1)[C@@H]1C[C@H]2CC[C@@H](C1)N2 [Compound 149] | 100 to 1000 | < 100 | 1000 to 10000 | 100 to 1000 | – | – | – | AC50 (HTT [2]; [9]): < 100 nM; IC50 (MYB [3]; decrease in CJ mRNA, A673 or K562 cells, 24 hours treatment, RT-qPCR, read-out: MYB CJ IC50): 1000 to 10000 nM; AC50 (MYB [3]; [9]): 1000 to 10000 nM |
| CC1(C)CC(Oc2ccc(-c3ccc(-c4cn[nH]c4)c4cn[nH]c34)nn2)CC(C)(C)N1 [Compound 138] | 100 to 1000 | 100 to 1000 | 100 to 1000 | 100 to 1000 | 100 to 1000 | 100 to 1000 | 100 to 1000 | IC50 (HTT [2]; [11]): 100 to 1000 nM |
| CN(c1ccc(-c2ccc(-n3cccn3)c3cn[nH]c23)nn1)C1CC(C)(C)NC(C)(C)C1 [Compound 150] | – | 100 to 1000 | 100 to 1000 | 100 to 1000 | 1000 to 10000 | 100 to 1000 | 100 to 1000 | IC50 (HTT [2]; [11]): 100 to 1000 nM |
| CN(c1ccc(-c2ccc(-n3cccn3)c3[nH]ncc23)nn1)[C@@H]1C[C@H]2CC[C@@H](C1)N2 [Compound 409] | < 100 | < 100 | 100 to 1000 | < 100 | < 100 | 100 to 1000 | 100 to 1000 | – |
| C[C@@H]1C[C@H](N(C)c2ccc(-c3ccc(-n4cccn4)c4nn[nH]c34)nn2)CCN1 [Compound 117] | 1000 to 10000 | – | 1000 to 10000 | – | 1000 to 10000 | 1000 to 10000 | 1000 to 10000 | IC50 (Target C [4]; Table 13A): 1 to 10 µM; IC50 (HTT [5]; Table 13A): 1 to 10 µM; IC50 (MYB [6]; Table 13A): 1 to 10 µM |
| COc1nc(-c2ccc(N(C)[C@@H]3CCN[C@H](C)C3)nn2)ccc1-c1cn[nH]c1 [Compound 909] | – | – | – | – | – | – | – | IC50 (HTT [2]; [14]): 1000 to 10000 nM; IC50 (MYB [3]; [15]): 1000 to 10000 nM; IC50 (Target C [4]; Table 13B): 1 to 10 µM; IC50 (SMN2; [16]): 100 to 1000 nM; IC50 (HTT [5]; Table 13B): 1 to 10 µM; IC50 (MYB [6]; Table 13B): 1 to 10 µM |
| COc1nc(-c2ccc(OC3CC(C)(C)NC(C)(C)C3)nc2)ccc1-c1cnn(C)c1 [Compound 990] | – | – | – | – | – | – | – | IC50 (Target C [1]; [16]): > 10000 nM; IC50 (HTT [2]; [14]): > 10000 nM; IC50 (MYB [3]; [15]): > 10000 nM; IC50 (SMN2; [16]): 1000 to 10000 nM |

— patent US20240368163A1, “COMPOUNDS AND METHODS FOR MODULATING SPLICING” (REMIX THERAPEUTICS INC., priority 2021, published 2024)
